{"source": "patent US20090318548A1", "about": "“PARA-QUINOL DERIVATIVES AND METHODS OF STEREO SELECTIVELY SYNTHESIZING AND USING SAME” (UNIVERSITY OF NORTHERN BRITISH COLUMBIA, priority 2006, published 2009)", "origin": "cited, not measured here", "key": {"[1]": {"target": "POLO-like kinase 1 (Plk1) enzyme (Homo sapiens, UniProt P53350)", "sequence (P53350 whole entry, species assumed)": "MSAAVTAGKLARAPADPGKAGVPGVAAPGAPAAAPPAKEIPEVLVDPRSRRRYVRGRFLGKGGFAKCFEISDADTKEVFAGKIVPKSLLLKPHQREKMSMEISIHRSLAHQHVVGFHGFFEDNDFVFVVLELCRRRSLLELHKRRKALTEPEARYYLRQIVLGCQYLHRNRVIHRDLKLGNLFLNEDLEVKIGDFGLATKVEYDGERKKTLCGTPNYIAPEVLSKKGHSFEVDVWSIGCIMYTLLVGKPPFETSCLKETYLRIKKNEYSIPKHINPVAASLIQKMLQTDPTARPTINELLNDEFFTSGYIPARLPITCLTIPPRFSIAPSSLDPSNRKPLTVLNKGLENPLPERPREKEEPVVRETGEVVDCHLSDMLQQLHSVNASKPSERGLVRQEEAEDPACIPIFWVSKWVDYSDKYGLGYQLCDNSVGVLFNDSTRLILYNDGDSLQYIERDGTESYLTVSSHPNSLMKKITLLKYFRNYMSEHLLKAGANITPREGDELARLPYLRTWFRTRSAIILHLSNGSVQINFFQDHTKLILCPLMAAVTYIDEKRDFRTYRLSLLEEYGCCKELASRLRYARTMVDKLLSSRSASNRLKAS"}, "Bacillus subtilis YycG": {"target": "Bacillus subtilis YycG (Bacillus subtilis, UniProt Q45614)", "sequence (Q45614 whole entry)": "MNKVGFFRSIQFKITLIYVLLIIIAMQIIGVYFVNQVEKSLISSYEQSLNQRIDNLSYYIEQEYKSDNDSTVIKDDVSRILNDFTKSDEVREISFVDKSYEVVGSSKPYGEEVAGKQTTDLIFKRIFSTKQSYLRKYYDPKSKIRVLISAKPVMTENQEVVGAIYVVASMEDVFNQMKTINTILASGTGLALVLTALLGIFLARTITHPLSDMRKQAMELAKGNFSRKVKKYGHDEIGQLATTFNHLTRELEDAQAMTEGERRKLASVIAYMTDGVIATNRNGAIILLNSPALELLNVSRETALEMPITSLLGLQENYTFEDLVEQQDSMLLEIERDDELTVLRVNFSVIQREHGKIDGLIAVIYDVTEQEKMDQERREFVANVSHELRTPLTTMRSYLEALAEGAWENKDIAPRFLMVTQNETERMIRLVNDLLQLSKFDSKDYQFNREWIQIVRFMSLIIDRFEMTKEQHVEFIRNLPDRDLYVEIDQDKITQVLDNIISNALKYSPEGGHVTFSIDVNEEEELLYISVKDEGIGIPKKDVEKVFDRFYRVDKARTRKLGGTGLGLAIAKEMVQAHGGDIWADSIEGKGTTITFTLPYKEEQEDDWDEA", "conditions": "for inhibition of Bacillus subtilis YycG (comparative experiments): established antibiotics as comparators"}, "[2]": {"target": "T1, YycG from Staphylococcus aureus (Staphylococcus aureus, UniProt Q2G2U4)", "T1 sequence (Q2G2U4 1-608)": "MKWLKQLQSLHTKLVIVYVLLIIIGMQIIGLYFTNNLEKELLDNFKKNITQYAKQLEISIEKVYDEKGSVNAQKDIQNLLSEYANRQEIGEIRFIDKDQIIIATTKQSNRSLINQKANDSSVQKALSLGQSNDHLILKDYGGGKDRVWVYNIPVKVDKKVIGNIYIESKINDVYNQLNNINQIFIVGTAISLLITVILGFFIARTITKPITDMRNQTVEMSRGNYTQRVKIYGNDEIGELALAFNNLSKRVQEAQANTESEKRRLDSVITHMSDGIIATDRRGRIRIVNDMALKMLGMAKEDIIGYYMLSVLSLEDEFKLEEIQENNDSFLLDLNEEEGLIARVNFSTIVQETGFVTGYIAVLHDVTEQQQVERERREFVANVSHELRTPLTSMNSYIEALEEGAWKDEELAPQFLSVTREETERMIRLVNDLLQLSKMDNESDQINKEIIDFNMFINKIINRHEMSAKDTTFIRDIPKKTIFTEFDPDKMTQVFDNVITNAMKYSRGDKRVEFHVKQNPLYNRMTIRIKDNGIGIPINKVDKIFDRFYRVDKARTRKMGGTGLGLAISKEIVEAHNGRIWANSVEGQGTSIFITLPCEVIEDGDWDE", "conditions": "read-out: IC50, inhibition of YycG"}}, "data": [{"compound": "CCCCCCC(C)/C=C(C)/C=C/C(=O)NC1CC2(OC1O)C1OC1C(O)C1OC12", "note": "(stereo not drawn) [Aranorosinol A]", "values": [{"measurement": "inhibition of Plk1 enzyme", "setting": "[1]", "value": 118, "unit": "µM"}]}, {"compound": "NCC[C@H](O)C(=O)N[C@@H]1C[C@H](N)[C@@H](O[C@H]2O[C@H](CN)[C@@H](O)[C@H](O)[C@H]2O)[C@H](O)[C@H]1O[C@H]1O[C@H](CO)[C@@H](O)[C@H](N)[C@H]1O", "note": "[amikacin]", "values": [{"measurement": "inhibition of Bacillus subtilis YycG (comparative experiments)", "setting": "Bacillus subtilis YycG", "value": "negligible inhibition"}]}, {"compound": "CCCCCCC(C)/C=C(C)/C=C/C(=O)N[C@H]1CC2(O[C@H]1O)[C@@H]1O[C@@H]1C(O)(CC(C)=O)[C@@H]1O[C@@H]12", "note": "(stereo partly drawn) [Aranorosinol B]", "values": [{"measurement": "IC50", "setting": "[2]", "value": 211, "unit": "µM"}, {"measurement": "IC50", "setting": "Bacillus subtilis YycG; YycG from Bacillus subtilis, read-out: IC50, inhibition of YycG", "value": 223, "unit": "µM"}]}, {"compound": "Cc1nnc(SCC2=C(C(=O)O)N3C(=O)[C@@H](NC(=O)Cn4cnnn4)[C@H]3SC2)s1", "note": "[cefazolin]", "values": [{"measurement": "inhibition of Bacillus subtilis YycG (comparative experiments)", "setting": "Bacillus subtilis YycG", "value": "negligible inhibition"}]}, {"compound": "CC[C@H]1OC(=O)[C@H](C)[C@@H](O[C@H]2C[C@@](C)(OC)[C@@H](O)[C@H](C)O2)[C@H](C)[C@@H](O[C@@H]2O[C@H](C)C[C@H](N(C)C)[C@H]2O)[C@](C)(O)C[C@@H](C)C(=O)[C@H](C)[C@@H](O)[C@]1(C)O", "note": "[erythromycin]", "values": [{"measurement": "inhibition of Bacillus subtilis YycG (comparative experiments)", "setting": "Bacillus subtilis YycG", "value": "negligible inhibition"}]}]}
